Results published in PubChem BioAssay AID248 (DTP/NCI, 2004).
Several values for one entry are separate records, joined by “and”; a condition that tells them apart may be missing. Identical values can stand only once. Inconclusive results and toxic doses are left out.

Tested on: L1210 leukemia ip in BDF1 mice, survival T/C
Assay: NCI In Vivo Anticancer Drug Screen. Data for tumor model L1210 Leukemia (intraperitoneal) in B6D2F1 (BDF1) mice
Settings: endpoint: mean survival time, higher = longer survival
Method in brief: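 Value reflects the ratio of survival in compound-treated mice to survival in vehicle-treated controls, with both groups carrying the same transplanted tumor.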

[1] = dose: 100.0 mg/kg/injection, schedule: Q04DX002 (ip), vehicle: Klucel (hydroxypropylcellulose) (HPC)
[2] = dose: 200.0 mg/kg/injection, schedule: Q04DX002 (ip), vehicle: Klucel (hydroxypropylcellulose) (HPC)
[3] = dose: 400.0 mg/kg/injection, schedule: Q04DX002 (ip), vehicle: Klucel (hydroxypropylcellulose) (HPC)
[4] = dose: 25.0 mg/kg/injection, schedule: Q04DX003 (ip), vehicle: Klucel (hydroxypropylcellulose) (HPC)
[5] = dose: 50.0 mg/kg/injection, schedule: Q04DX003 (ip), vehicle: Klucel (hydroxypropylcellulose) (HPC)
[6] = dose: 100.0 mg/kg/injection, schedule: Q01DX009 (ip), vehicle: Klucel (hydroxypropylcellulose) (HPC)
[7] = dose: 100.0 mg/kg/injection, schedule: Q04DX003 (ip), vehicle: Klucel (hydroxypropylcellulose) (HPC)
[8] = dose: 200.0 mg/kg/injection, schedule: Q01DX009 (ip), vehicle: Klucel (hydroxypropylcellulose) (HPC)
[9] = dose: 100.0 mg/kg/injection, schedule: Q01DX001 (ip), vehicle: saline with Tween-80
[10] = dose: 100.0 mg/kg/injection, schedule: Q01DX009 (ip), vehicle: saline with Tween-80
[11] = dose: 200.0 mg/kg/injection, schedule: Q01DX001 (ip), vehicle: saline with Tween-80
[12] = dose: 200.0 mg/kg/injection, schedule: Q01DX009 (ip), vehicle: saline with Tween-80
[13] = dose: 400.0 mg/kg/injection, schedule: Q01DX001 (ip), vehicle: saline with Tween-80
[14] = dose: 400.0 mg/kg/injection, schedule: Q01DX009 (ip), vehicle: saline with Tween-80
[15] = dose: 100.0 mg/kg/injection, schedule: Q04DX002 (ip), vehicle: saline with Tween-80
[16] = dose: 100.0 mg/kg/injection, schedule: Q04DX003 (ip), vehicle: saline with Tween-80
[17] = dose: 200.0 mg/kg/injection, schedule: Q04DX002 (ip), vehicle: saline with Tween-80
[18] = dose: 200.0 mg/kg/injection, schedule: Q04DX003 (ip), vehicle: saline with Tween-80
[19] = dose: 400.0 mg/kg/injection, schedule: Q04DX002 (ip), vehicle: saline with Tween-80
[20] = dose: 400.0 mg/kg/injection, schedule: Q04DX003 (ip), vehicle: saline with Tween-80
[21] = dose: 100.0 mg/kg/injection, schedule: Q01DX001 (ip), vehicle: Klucel (hydroxypropylcellulose) (HPC)
[22] = dose: 200.0 mg/kg/injection, schedule: Q01DX001 (ip), vehicle: Klucel (hydroxypropylcellulose) (HPC)
[23] = dose: 200.0 mg/kg/injection, schedule: Q04DX003 (ip), vehicle: Klucel (hydroxypropylcellulose) (HPC)
[24] = dose: 400.0 mg/kg/injection, schedule: Q04DX003 (ip), vehicle: Klucel (hydroxypropylcellulose) (HPC)

With `NC(N)=N/N=C/C(F)(F)F` the T/C (dose: 15.0 mg/kg/injection, schedule: Q01DX Z (ip), vehicle: methylcellulose (MC)) was 105 % of control, the T/C (dose: 30.0 mg/kg/injection, schedule: Q01DX Z (ip), vehicle: methylcellulose (MC)) was 102 % of control and the T/C (dose: 60.0 mg/kg/injection, schedule: Q01DX Z (ip), vehicle: methylcellulose (MC)) was 112 % of control. The T/C (dose: 60.0 mg/kg/injection, schedule: Q01DX Z (oral), vehicle: methylcellulose (MC)) was 92 % of control, the T/C (dose: 120.0 mg/kg/injection, schedule: Q01DX Z (ip), vehicle: methylcellulose (MC)) was 97 % of control and the T/C (dose: 120.0 mg/kg/injection, schedule: Q01DX Z (oral), vehicle: methylcellulose (MC)) was 93 % of control. The T/C (dose: 240.0 mg/kg/injection, schedule: Q01DX Z (ip), vehicle: methylcellulose (MC)) was 88 % of control, the T/C (dose: 240.0 mg/kg/injection, schedule: Q01DX Z (oral), vehicle: methylcellulose (MC)) was 102 % of control and the T/C (dose: 420.0 mg/kg/injection, schedule: Q01DX Z (ip), vehicle: methylcellulose (MC)) was 88 % of control. For the same molecule, the T/C (dose: 480.0 mg/kg/injection, schedule: Q01DX Z (oral), vehicle: methylcellulose (MC)) was 95 % of control.
With `CCCCCCCCC1SC1CCCCCCCC(=O)O` (stereo not given) the T/C [1] was 103 % of control, the T/C [2] was 100 % of control and the T/C [3] was 95 % of control.
`CCOC(=O)C(C)CC(C)(C(=O)OCC)C(=O)OCC` (stereo not given) was tested, and the T/C [4] was 98 % of control, the T/C (dose: 50.0 mg/kg/injection, schedule: Q01DX009 (ip), vehicle: Klucel (hydroxypropylcellulose) (HPC)) was 93 % of control and the T/C [5] was 103 % of control. For the same molecule, the T/C [6] was 104 % of control, the T/C [7] was 98 % of control and 103 % of control and the T/C [8] was 100 % of control.
In the case of `Cc1c2ccncc2c(C)c2c1[nH]c1ccc(O)cc12`, the T/C (dose: 3.1 mg/kg/injection, schedule: Q01DX009 (ip), vehicle: saline with Tween-80) is reported as 158 % of control, the T/C (dose: 6.25 mg/kg/injection, schedule: Q01DX009 (ip), vehicle: saline with Tween-80) is reported as 100 % of control and the T/C (dose: 6.3 mg/kg/injection, schedule: Q04DX003 (ip), vehicle: saline with Tween-80) is reported as 122 % of control. The T/C (dose: 12.5 mg/kg/injection, schedule: Q01DX001 (oral), vehicle: saline with Tween-80) was 104 % of control, the T/C (dose: 12.5 mg/kg/injection, schedule: Q01DX009 (ip), vehicle: saline with Tween-80) was 98 % of control and the T/C (dose: 25.0 mg/kg/injection, schedule: Q01DX001 (oral), vehicle: saline with Tween-80) was 106 % of control. The T/C (dose: 50.0 mg/kg/injection, schedule: Q01DX001 (oral), vehicle: saline with Tween-80) was 104 % of control, the T/C (dose: 50.0 mg/kg/injection, schedule: Q04DX003 (ip), vehicle: saline with Tween-80) was 98 % of control and the T/C (dose: 100.0 mg/kg/injection, schedule: Q01DX001 (oral), vehicle: saline with Tween-80) was 114 % of control. The T/C (dose: 200.0 mg/kg/injection, schedule: Q01DX001 (oral), vehicle: saline with Tween-80) was 112 % of control.
With `CC(=O)N(Cl)c1ccc(Cl)cc1Cl` the T/C [1] was 100 % of control, the T/C [2] was 98 % of control and the T/C [3] was 91 % of control.
In the case of `CCOC(=O)C1(C(=O)OCC)C(C)CC(O)N1C(=O)c1ccccc1[N+](=O)[O-]` (stereo not given), the T/C [4] is reported as 100 % of control, the T/C [5] is reported as 91 % of control and the T/C [7] is reported as 92 % of control.
In the case of `N=c1nc(N)nc2c3ccccc3nnn12`, the T/C (dose: 75.0 mg/kg/injection, schedule: Q01DX001 (ip), vehicle: other) is reported as 105 % of control and the T/C (dose: 150.0 mg/kg/injection, schedule: Q01DX001 (ip), vehicle: other) is reported as 106 % of control.
In the case of `CC(=O)OCC1OC(Oc2ccccc2)C(OC(C)=O)C(OC(C)=O)C1OC(C)=O` (stereo not given), the T/C [9] is reported as 101 % of control, the T/C [10] is reported as 101 % of control and the T/C [11] is reported as 96 % of control. For the same molecule, the T/C [12] was 95 % of control, the T/C [13] was 101 % of control and the T/C [14] was 96 % of control.
For `Cc1cccc(NC(=O)OC/C=C/c2ccccc2)c1`, the T/C [9] was 114 % of control, the T/C [10] was 102 % of control and 103 % of control and the T/C [15] was 105 % of control and 108 % of control. The T/C [16] was 86 % of control, the T/C [11] was 103 % of control and the T/C [12] was 95 % of control and 96 % of control. For the same molecule, the T/C [17] was 95 % of control and 105 % of control, the T/C [18] was 90 % of control and the T/C [13] was 97 % of control. For the same molecule, the T/C [14] was 90 % of control, the T/C [19] was 95 % of control and 105 % of control and the T/C [20] was 86 % of control.
`CCOc1ccc(N=C=S)cc1` was tested, and the T/C (dose: 100.0 mg/kg/injection, schedule: Q01DX001 (ip), vehicle: saline) was 93 % of control, the T/C (dose: 200.0 mg/kg/injection, schedule: Q01DX001 (ip), vehicle: saline) was 98 % of control and the T/C (dose: 400.0 mg/kg/injection, schedule: Q01DX001 (ip), vehicle: saline) was 102 % of control.
For `C[n+]1cccc2cc(Br)ccc21`, the T/C (dose: 5.0 mg/kg/injection, schedule: Q01DX001 (ip), vehicle: other) was 100 % of control, the T/C (dose: 10.0 mg/kg/injection, schedule: Q01DX001 (ip), vehicle: other) was 107 % of control and the T/C (dose: 20.0 mg/kg/injection, schedule: Q01DX001 (ip), vehicle: other) was 111 % of control. For the same molecule, the T/C (dose: 40.0 mg/kg/injection, schedule: Q01DX001 (ip), vehicle: other) was 105 % of control.
`Cc1cc(=O)oc2cc(OC(=O)Nc3ccccc3)ccc12` was tested, and the T/C [21] was 93 % of control, the T/C [6] was 94 % of control and 105 % of control and the T/C [1] was 108 % of control and 118 % of control. The T/C [7] was 105 % of control, the T/C [22] was 104 % of control and the T/C [8] was 98 % of control. The T/C [2] was 112 % of control and 92 % of control, the T/C [23] was 100 % of control and the T/C (dose: 400.0 mg/kg/injection, schedule: Q01DX001 (ip), vehicle: Klucel (hydroxypropylcellulose) (HPC)) was 108 % of control. The T/C [24] was 92 % of control.
For `O=C1c2c(c(-c3ccccc3)c3ccccc3c2-c2ccccc2)C(=O)C2C(c3ccccc3)c3ccccc3C(c3ccccc3)C12` (stereo not given), the T/C [1] was 113 % of control, the T/C [2] was 106 % of control and the T/C [3] was 98 % of control.
`C=CC[P+](CC)(c1ccccc1)c1ccccc1` was tested, and the T/C (dose: 3.13 mg/kg/injection, schedule: Q01DX009 (ip), vehicle: saline) was 97 % of control.
`O=S(=O)(C1=C(c2ccccc2)CCCC1)c1ccccc1` was tested, and the T/C (dose: 100.0 mg/kg/injection, schedule: Q01DX009 (ip), vehicle: acetone) was 104 % of control.
`COc1ccc2c(c1)CCC1C2CCC2C(O)CCCC21` (stereo not given) was tested, and the T/C (dose: 50.0 mg/kg/injection, schedule: Q01DX001 (ip), vehicle: Klucel (hydroxypropylcellulose) (HPC)) was 95 % of control, the T/C [21] was 93 % of control and the T/C [22] was 87 % of control.
In the case of `CN=C(NC(C=O)C(O)C(O)C(O)CO)c1ccc(NC(=O)c2ccc(C(=O)Nc3ccc(C(=NC)NC(C=O)C(O)C(O)C(O)CO)cc3)cc2)cc1` (stereo not given), the T/C (dose: 62.0 mg/kg/injection, schedule: Q01DX Z (ip), vehicle: water) is reported as 111 % of control and the T/C (dose: 125.0 mg/kg/injection, schedule: Q01DX Z (ip), vehicle: water) is reported as 115 % of control.
In the case of `COc1ccc(C(C)c2ccc(OC)cc2)cc1`, the T/C [16] is reported as 93 % of control, the T/C [18] is reported as 95 % of control and the T/C [20] is reported as 91 % of control.
`O=[N+]([O-])c1ccc(/C=C/c2ncccn2)o1` was tested, and the T/C [7] was 97 % of control, the T/C [23] was 103 % of control and the T/C [24] was 97 % of control.
For `C/C(=N\N=C(/C)c1ccc([N+](=O)[O-])cc1)c1ccc([N+](=O)[O-])cc1`, the T/C [15] was 98 % of control, the T/C [17] was 103 % of control and the T/C [19] was 103 % of control.
For `CC(O)(CC(c1ccccc1)N1CCc2ccccc2C1)c1ccccc1` (stereo not given), the T/C (dose: 100.0 mg/kg/injection, schedule: Q04DX003 (ip), vehicle: saline) was 105 % of control, the T/C (dose: 200.0 mg/kg/injection, schedule: Q04DX003 (ip), vehicle: saline) was 102 % of control and the T/C (dose: 400.0 mg/kg/injection, schedule: Q04DX003 (ip), vehicle: saline) was 96 % of control.
In the case of `Cc1cc(Nc2ccc(C)c(Cl)c2)nc(N)n1`, the T/C (dose: 100.0 mg/kg/injection, schedule: Q01DX Z (ip), vehicle: methylcellulose (MC)) is reported as 89 % of control.
